Test results: ChEMBL document CHEMBL1201862, “PubChem BioAssay data set” (2004)
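Where inhibition never reached the appropriate level, the endpoint shown equals the highest concentration tested. Otherwise, values were interpolated linearly from a five-concentration, 48-hour dose response in 96-well plates. GI50 = concentration required for 50% inhibition of growth.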 The source made the active and inactive calls. Rule as the data show it: active = GI50 up to about 1.1 µM and inactive = higher.

What was measured:
Assay in all cases: NCI anticancer screen, dose series, 48 h
ACHN = system: ACHN
COLO 205 = system: COLO 205
HCT-15 = system: HCT-15
HL-60 = system: HL-60
HOP-62 = system: HOP-62
HT-29 = system: HT-29
LOX IMVI = system: LOX IMVI
NCI-H23 = system: NCI-H23
OVCAR-3 = system: OVCAR-3
RXF 393 = system: RXF 393
SF-539 = system: SF-539
SK-MEL-28 = system: SK-MEL-28
SK-MEL-5 = system: SK-MEL-5
SNB-75 = system: SNB-75
UO-31 = system: UO-31
DU-145 = system: DU-145
MDA-MB-231 = system: MDA-MB-231
NCI/ADR-RES = system: NCI/ADR-RES
MCF7 = system: MCF7
PC-3 = system: PC-3

Measured: GI50

Cc1c(CCO)c(O)n2c(nc3ccccc32)c1C#N
inactive: ACHN > 100 µM | COLO 205 > 100 µM | HL-60 10 µM | HOP-62 > 100 µM | HT-29 44.3 µM | LOX IMVI 68.7 µM | NCI-H23 53.8 µM | OVCAR-3 92.5 µM | RXF 393 > 100 µM | SF-539 > 100 µM | SK-MEL-28 > 100 µM | SK-MEL-5 21.8 µM | SNB-75 > 100 µM | UO-31 65.8 µM
45.7 µM: HCT-15

Cc1cc2nc3c(C#N)c4c(c(Nc5ccc(Cl)cc5)n3c2cc1C)CCC4
18.8 µM: HCT-15
inactive: ACHN 20.6 µM | COLO 205 25.2 µM | DU-145 26.5 µM | HOP-62 58.7 µM | HT-29 18.1 µM | LOX IMVI 18.7 µM | MDA-MB-231 20.8 µM | NCI-H23 26.3 µM | NCI/ADR-RES 22.6 µM | OVCAR-3 17.9 µM | RXF 393 17.3 µM | SF-539 27.1 µM | SK-MEL-28 22.1 µM | SK-MEL-5 18.2 µM | SNB-75 30.5 µM

C/C(=N/NC(=S)Nc1ccc([N+](=O)[O-])cc1)c1cccc(/C(C)=N\NC(=S)Nc2ccc([N+](=O)[O-])cc2)n1
active: ACHN 0.126 µM | COLO 205 0.218 µM | HL-60 0.265 µM | HOP-62 0.752 µM | HT-29 0.628 µM | LOX IMVI 0.313 µM | MCF7 0.341 µM | MDA-MB-231 0.56 µM | NCI-H23 0.877 µM | NCI/ADR-RES 0.469 µM | OVCAR-3 0.0867 µM | PC-3 0.6 µM | RXF 393 0.53 µM | SF-539 0.458 µM | SK-MEL-5 0.353 µM | UO-31 0.382 µM
0.125 µM: HCT-15
inactive: SK-MEL-28 > 100 µM | SNB-75 3.3 µM

CC(=O)O[C@H]1CCC2[C@@H]3CCC4=C(O)C(=O)C(C#N)C[C@]4(C)C3CC[C@@]21C (stereo not given in full)
30 µM: HCT-15
inactive: ACHN 26.7 µM | COLO 205 28.4 µM | HL-60 20 µM | HOP-62 65.5 µM | HT-29 42.5 µM | LOX IMVI 18.9 µM | NCI-H23 29.1 µM | OVCAR-3 38.6 µM | RXF 393 24.9 µM | SF-539 50.8 µM | SK-MEL-28 46.7 µM | SK-MEL-5 26.1 µM | SNB-75 12.6 µM | UO-31 13.7 µM

CC(=O)N(C)c1ccc(Nc2ccnc3ccc4nn(C)nc4c23)cc1
21.5 µM: HCT-15
inactive: ACHN 13.7 µM | COLO 205 19.1 µM | DU-145 28.6 µM | HL-60 18.4 µM | HOP-62 26 µM | HT-29 29.4 µM | LOX IMVI 16 µM | MCF7 13.4 µM | NCI-H23 32.4 µM | NCI/ADR-RES 28.1 µM | OVCAR-3 19.3 µM | PC-3 26.9 µM | RXF 393 16.9 µM | SF-539 19.2 µM | SK-MEL-28 20.7 µM | SK-MEL-5 19.9 µM | SNB-75 21.3 µM | UO-31 9.02 µM

COc1ccc(/C=C/C(=N/NC(=O)N/N=C(/C=C/c2ccc(OC)cc2)C(C)(C)CN2CCCCC2)C(C)(C)CN2CCCCC2)cc1
3.12 µM: HCT-15
inactive: ACHN 1.75 µM | COLO 205 1.65 µM | DU-145 > 10 µM | HL-60 1.5 µM | HOP-62 2.15 µM | HT-29 1.58 µM | LOX IMVI 1.37 µM | MCF7 2.35 µM | NCI-H23 3.03 µM | NCI/ADR-RES 1.97 µM | OVCAR-3 1.87 µM | PC-3 2.28 µM | RXF 393 1.35 µM | SF-539 2.28 µM | SK-MEL-28 1.56 µM | SK-MEL-5 1.63 µM | SNB-75 1.37 µM | UO-31 1.58 µM

N#CC(C#N)=Cc1ccc(Oc2ccccc2)cc1
70.5 µM: HCT-15
inactive: ACHN 21.3 µM | COLO 205 45.5 µM | HL-60 23 µM | HOP-62 65.8 µM | HT-29 22.4 µM | LOX IMVI 15.8 µM | NCI-H23 23.6 µM | OVCAR-3 26.4 µM | RXF 393 30.5 µM | SF-539 19.9 µM | SK-MEL-28 15.8 µM | SK-MEL-5 24.5 µM | SNB-75 25.1 µM | UO-31 25.9 µM

COc1cc2c(c(OC)c1OC)-c1ccc(SC)c(=O)cc1C(CC(=O)Oc1ccccc1F)C2 (stereo not given)
0.0122 µM: HCT-15
inactive: SNB-75 > 7.5 µM
active: ACHN 0.0834 µM | COLO 205 0.0136 µM | HL-60 < 0.0075 µM | HOP-62 0.0175 µM | HT-29 0.00841 µM | LOX IMVI < 0.0075 µM | NCI-H23 0.0219 µM | OVCAR-3 0.0119 µM | RXF 393 < 0.0075 µM | SF-539 < 0.0075 µM | SK-MEL-28 0.055 µM | SK-MEL-5 0.0215 µM | UO-31 0.127 µM

O=S(=O)(N/N=C1\CC2CCC1C2)c1ccccc1 (stereo not given)
> 100 µM: HCT-15
inactive: ACHN > 100 µM | COLO 205 > 100 µM | DU-145 > 100 µM | HL-60 > 100 µM | HOP-62 > 100 µM | HT-29 > 100 µM | LOX IMVI > 100 µM | MCF7 > 100 µM | NCI-H23 > 100 µM | NCI/ADR-RES > 100 µM | OVCAR-3 > 100 µM | PC-3 > 100 µM | SK-MEL-28 > 100 µM | SK-MEL-5 > 100 µM | SNB-75 > 100 µM | UO-31 > 100 µM

O=C1C2C3CC(C4C5C=CC(C5)C34)C2C2C3CC(C12)C1C2C=CC(C2)C31 (stereo not given)
inactive: ACHN > 100 µM | COLO 205 > 100 µM | HL-60 75.2 µM | HOP-62 > 100 µM | HT-29 > 100 µM | LOX IMVI 28.8 µM | NCI-H23 > 100 µM | OVCAR-3 > 100 µM | RXF 393 > 100 µM | SF-539 > 100 µM | SK-MEL-28 > 100 µM | SK-MEL-5 > 100 µM | SNB-75 > 100 µM | UO-31 > 100 µM
> 100 µM: HCT-15

COC(=O)/C=C/c1ccc2c(c1)CC1(Cc3ccccc3C1)C2
inactive: ACHN > 100 µM | COLO 205 > 100 µM | HL-60 30.5 µM | HOP-62 > 100 µM | HT-29 79.4 µM | LOX IMVI > 100 µM | MCF7 > 100 µM | MDA-MB-231 > 100 µM | NCI-H23 55.7 µM | NCI/ADR-RES > 100 µM | OVCAR-3 > 100 µM | PC-3 > 100 µM | RXF 393 16.5 µM | SF-539 > 100 µM | SK-MEL-5 43.2 µM | UO-31 > 100 µM
> 100 µM: HCT-15

NC(=S)NNC(=O)CCC(=O)Nc1ccc(Cl)cc1Cl
inactive: ACHN > 100 µM | COLO 205 > 100 µM | HL-60 > 100 µM | HOP-62 > 100 µM | HT-29 > 100 µM | LOX IMVI 66.8 µM | NCI-H23 > 100 µM | OVCAR-3 > 100 µM | RXF 393 > 100 µM | SF-539 > 100 µM | SK-MEL-28 > 100 µM | SK-MEL-5 62.7 µM | SNB-75 > 100 µM | UO-31 > 100 µM
50.4 µM: HCT-15

COC(=O)CCC(NC(=S)N/N=C(\C)c1nccs1)C(=O)OC (stereo not given)
inactive: ACHN 47.6 µM | COLO 205 11.3 µM | HL-60 10 µM | HOP-62 48.8 µM | HT-29 73.5 µM | LOX IMVI 52 µM | NCI-H23 > 100 µM | OVCAR-3 31.3 µM | RXF 393 42.2 µM | SF-539 > 100 µM | SK-MEL-28 > 100 µM | SK-MEL-5 36.4 µM | SNB-75 68.2 µM | UO-31 49.3 µM
46.3 µM: HCT-15

CC(=NNC(=S)Nc1ccccc1C)c1cccc(C(C)=NNC(=S)Nc2ccccc2C)n1
8.63 µM: HCT-15
inactive: ACHN 4.15 µM | COLO 205 10.9 µM | DU-145 23.1 µM | HL-60 19.7 µM | HOP-62 6.56 µM | HT-29 39 µM | LOX IMVI 6.9 µM | MCF7 65.2 µM | NCI-H23 65.3 µM | NCI/ADR-RES 18.6 µM | PC-3 32.1 µM | RXF 393 13.4 µM | SF-539 6.68 µM | SK-MEL-28 13 µM | SK-MEL-5 1.3 µM | SNB-75 2.36 µM | UO-31 45.9 µM

COc1cc(CN[C@H]2CCc3cc(OC)c(OC)c(OC)c3-c3ccc(SC)c(=O)cc32)cc(OC)c1
active: ACHN 0.0439 µM | COLO 205 0.0325 µM | HL-60 0.0394 µM | HOP-62 0.0562 µM | HT-29 0.0249 µM | LOX IMVI 0.0465 µM | NCI-H23 0.0286 µM | OVCAR-3 0.0334 µM | RXF 393 0.0266 µM | SF-539 0.0206 µM | SK-MEL-28 0.0386 µM | SK-MEL-5 0.0336 µM | SNB-75 0.0243 µM | UO-31 0.0938 µM
0.0483 µM: HCT-15

CC(C)[C@H](CCl)NC(=O)c1cccc(C(=O)N[C@H](CCl)C(C)C)n1 (stereo in doubt)
inactive: ACHN > 100 µM | COLO 205 > 100 µM | HL-60 > 100 µM | HOP-62 > 100 µM | HT-29 > 100 µM | LOX IMVI > 100 µM | NCI-H23 > 100 µM | OVCAR-3 > 100 µM | RXF 393 > 100 µM | SF-539 > 100 µM | SK-MEL-28 > 100 µM | SK-MEL-5 > 100 µM | SNB-75 > 100 µM | UO-31 > 100 µM
> 100 µM: HCT-15

NC(=O)c1cc([N+](=O)[O-])cc([N+](=O)[O-])c1 [NITROMIDE]
inactive: ACHN > 100 µM | COLO 205 30.3 µM | HL-60 40.9 µM | HOP-62 > 100 µM | HT-29 > 100 µM | LOX IMVI > 100 µM | NCI-H23 > 100 µM | OVCAR-3 > 100 µM | RXF 393 > 100 µM | SF-539 > 100 µM | SK-MEL-28 > 100 µM | SK-MEL-5 > 100 µM | SNB-75 > 100 µM | UO-31 > 100 µM
> 100 µM: HCT-15
